In brackets after ≈: the same amount, converted by molar mass. Entries after “also recorded” stand apart in the source; their conditions may differ. Like-named read-outs stand apart in the source and are kept apart here.
Columns and labels:
renal cancer cells = system: renal cancer cells; set-up: method as in PMID 34644207; conditions: cited from earlier work
HepG2 cells [1] = conditions: 72 h exposure, cited from earlier work
HepG2 cells [2] = test: series of five cytotoxicity assays (MTT, NRU, TPC, LDH, BrdU), summary; type: cell-based; conditions: Homo sapiens, HepG2, 72 h, across MTT, read-out: IC50 values, range depending on the cellular parameter evaluated
Procedure: The cultured cells, for 72 h, were exposed to doxycycline (at concentrations ranging from 1.56 μg/mL to 200 μg/mL), both alone and in combination with CBD: 1.56 μg/mL (DOX + C1) and 3.125 μg/mL (DOX + C2) at two non-toxic doses (Supplementary Materials). A series of cytotoxicity assays included assessments of mitochondrial activity, lysosomal activity, cell membrane integrity, DNA synthesis, and cell proliferation.
The metabolic activity of viable cells was assessed by measuring dehydrogenase activity [82]. After exposing the cell cultures to the test compounds, 10 µL of MTT solution (5 mg/mL in PBS) was added to each well of a 96-well plate. […] The plate was shaken for 15 min at room temperature and transferred to a Synergy 2 Multi-Mode Microplate Reader (BioTek® Instruments Inc., Winooski, VT, USA) to measure absorbance at 570 nm, using a blank as reference. Cytotoxicity was expressed as a percentage relative to the negative control [83].
This method is based on staining viable cells with neutral red, a dye that readily diffuses through the plasma membrane and accumulates in lysosomes [84]. […] After 10 min of shaking, the absorbance of the extracted dye was measured at 540 nm using a Synergy 2 Multi-Mode Microplate Reader (BioTek® Instruments Inc., Winooski, VT, USA), with a blank as reference. Cytotoxicity was expressed as a percentage relative to the negative control [83]. […]

HepG2 cells [3] = system: HepG2 cells; set-up: method as in PMID 32867402; conditions: cited from earlier work
normal HK-2 cells = system: normal HK-2 cells; set-up: method as in PMID 34644207; conditions: HK-2, 20 µg/mL, without triggering apoptosis; cited from earlier work
HEK-293 cells [4] = test: apoptosis and necrosis (Hoechst 33342 + propidium iodide staining); type: cell-based, human; conditions: HEK-293, 72 h
Procedure: (§7) The type and extent of cell death in the control and treated cultures were evaluated using fluorochrome staining with Hoechst 33342 and propidium iodide to assess apoptosis and necrosis [88]. Dead cells were analyzed morphologically using a fluorescence microscope (Axiovert 200 M, Zeiss, Oberkochen, Germany). Cells with pink, fluorescent nuclei were considered necrotic, whereas cells with blue, fluorescent nuclei (fragmented and/or condensed chromatin) were classified as apoptotic.

HEK-293 cells [5] = test: series of five cytotoxicity assays (MTT, NRU, TPC, LDH, BrdU), summary; type: cell-based; conditions: Homo sapiens, HEK293, 72 h, read-out: IC50 values, range depending on the cellular parameter assessed
[6] = cited from earlier work
HEK-293 cells [7] = test: lysosomal activity (NRU assay)
Procedure: (§1) This innovative study evaluated the effects of cannabidiol (Cannabis sativa L.) on doxycycline-induced toxicity using three cell cultures: neural—SH-SY5Y, liver—HepG2, and kidney—HEK-293. […] A series of cytotoxicity assays included assessments of mitochondrial activity, lysosomal activity, cell membrane integrity, DNA synthesis, and cell proliferation. Based on the obtained results, IC50 values for doxycycline, both in monotherapy and in combination with CBD, were calculated, along with evaluations of ROS, death of cells, and morphology. The interaction between the drug and CBD was further analyzed by the combination index (CI).
(§2) This method is based on staining viable cells with neutral red, a dye that readily diffuses through the plasma membrane and accumulates in lysosomes. After incubation with the test compounds, the medium containing the substances was removed, and the cells were washed with PBS. Subsequently, 100 µL/well of neutral red (NR) solution (50 µg/mL) was added and incubated for 3 h. After incubation, the cells were washed again with PBS. The dye retained in viable cells was extracted using a solution of acetic acid, ethanol, and water (1:50:49, v/v/v). After 10 min of shaking, the absorbance of the extracted dye was measured at 540 nm using a Synergy 2 Multi-Mode Microplate Reader (BioTek® Instruments Inc., Winooski, VT, USA), with a blank as reference. Cytotoxicity was expressed as a percentage relative to the negative control.
(§3) To determine the types of interaction that occur when cells are exposed to combinations of DOX and CBD, the method established by Chou and Talalay was used in this study. The dose–effect relationships of the individual and combined test compounds were modeled biometrically using the Median-Effect Equation based on the Mass Action Law.fa/fu = (D/Dm)^m
(§4) In this isobolographic analysis, the combination index (CI) is a quantitative parameter used to evaluate the type and strength of interactions between multiple compounds. For all combinations, CI values were calculated across a range of affected fractions (Fa) from 0.05 to 0.95 (corresponding to 5–95% toxicity). CI values of 0.9–1.1, <0.9, and >1.1 indicate additive, synergistic, and antagonistic effects, respectively.
(§5) The study was conducted in three independent experiments (n = 3). […] Cytotoxicity data were analyzed using one-way analysis of variance (ANOVA), followed by Dunnett’s post hoc test to assess significance relative to the negative control. The half-maximal inhibitory concentration (IC50), representing the drug or drug–CBD mixture concentration required to inhibit cell viability by 50%, was calculated using GraphPad Prism 5.0. Statistical comparisons between IC50 values were performed using ANOVA followed by Tukey’s post hoc test. Differences were considered statistically significant at p ≤ 0.05.

SH-SY5Y cells [8] = test: lysosomal activity (NRU assay); conditions: 72 h
Procedure: as §1, §2, §3, §4, §5

HepG2 cells [9] = test: lysosomal activity (NRU assay)
Procedure: as §1, §2, §3, §4, §5

[10] = system: human pluripotent stem cell-derived hepatocytes; conditions: cited from earlier work
various human cell lines = conditions: cited from earlier work
SH-SY5Y cells [11] = system: SH-SY5Y cells; set-up: method as in PMID 16341128; conditions: 24 h, cited from earlier work
HEK-293 cells [12] = test: proliferation, total cellular protein (TPC assay)
Procedure: as §1
(§6) This assay is based on staining total cellular proteins as a measure of proliferation. After incubation, the medium containing the test compounds was removed, and 100 µL of Coomassie Brilliant Blue R-250 dye was added to each well. The plate was shaken for 10 min. The dye was then removed, and the cells were rinsed twice with 100 µL of washing solution (glacial acetic acid/ethanol/water, 5:10:85, v/v/v). Next, 100 µL of desorbing solution (1 M potassium acetate) was added, and the plate was shaken again for 10 min. Absorbance was measured at 595 nm using the Synergy 2 Multi-Mode Microplate Reader (BioTek® Instruments Inc., Winooski, VT, USA), with a blank as reference. Cytotoxicity was expressed as a percentage relative to the negative control.
as §3, §4, §5

SH-SY5Y cells [13] = test: proliferation, total cellular protein (TPC assay); conditions: 72 h
Procedure: as §1, §6, §3, §4, §5

HepG2 cells [14] = test: proliferation, total cellular protein (TPC assay)
Procedure: as §1, §6, §3, §4, §5

SH-SY5Y cells [15] = conditions: 72 h, Hoechst 33342/propidium iodide
Procedure: as §7

HepG2 cells [16] = system: HepG2 cells; set-up: method as in PMID 22116976; conditions: HepG2, 20 µM (10.3 µg/mL); inhibited mitochondrial activity, membrane damage, increased ROS; cited from earlier work

Compound: C[C@H]1c2cccc(O)c2C(=O)C2=C(O)[C@]3(O)C(=O)C(C(N)=O)=C(O)[C@@H](N(C)C)[C@@H]3[C@@H](O)[C@@H]21 [DOX, doxycycline hyclate]
- concentration that significantly inhibited protein synthesis and mitochondrial complex activity (renal cancer cells; cells of neoplastic origin): 5 µg/mL
- concentration that induced apoptosis (renal cancer cells; renal cancer cells): 10 µg/mL
- IC50 of mitochondrial inhibition (HepG2 cells [1]; converted value in brackets): 10.3 µg/mL
- IC50 (HepG2 cells [1]; read-out: IC50 of mitochondrial inhibition): 20 µM
- IC50 (HepG2 cells [2]): 13.4 to 200 µg/mL (≈ 30.2 to 450 µM)
- concentration causing about a 50% reduction in cell viability (HepG2 cells [3]; HepG2, converted value in brackets): 10.3 to 13.0 µg/mL
- IC50 (HepG2 cells [3]; HepG2, read-out: concentration causing about a 50% reduction in cell viability): 20 to 25 µM
- effect on DNA synthesis (normal HK-2 cells): inhibited DNA synthesis
- apoptotic and necrotic cell fractions (HEK-293 cells [4]): increased apoptotic and necrotic cell fractions; also recorded: significant increase in apoptotic and necrotic cells
- IC50 (HEK-293 cells [5]): 8.9 to 30.4 µg/mL (≈ 20 to 68.4 µM)
- DOX level in breast muscles ([6]; breast muscles): 32.4 ± 3.6 µg/kg
- residues of DOX detected in eggs ([6]; eggs): up to 1400 μg/kg
- DOX concentration accumulated in the kidneys ([6]; kidneys): 44.7 ± 4.3 µg/kg
- DOX concentration measured in the liver ([6]; liver): 21.6 ± 3.2 µg/kg
- residues of DOX detected in milk ([6]; milk): 5 to 490 µg/kg
- DOX level in thigh muscles ([6]; thigh muscles): 22.7 ± 2.9 µg/kg
- doxycycline concentration that inhibited lysosomal activity (HEK-293 cells [7]; HEK-293, NRU, 72 h): 6.25 µg/mL
- IC50 (HEK-293 cells [7]; Homo sapiens, HEK293, 72 h): 12.7 ± 1 µg/mL
- IC50 (SH-SY5Y cells [8]; Homo sapiens): > 200 µg/mL
- doxycycline concentration at which lysosomal activity was inhibited (SH-SY5Y cells [8]; NRU): 50 µg/mL
- doxycycline concentration that inhibited lysosomal activity (HepG2 cells [9]; HepG2, NRU, 72 h): 25 µg/mL
- IC50 (HepG2 cells [9]; Homo sapiens, HepG2, 72 h): 13.4 ± 0.9 µg/mL
- effect on mitochondrial membrane [10]: depolarized the mitochondrial membrane
- effect of extended incubation on human cell lines (various human cell lines; 96 h, 0.1 to 10 µg/mL, increased lactate production and decreased oxygen consumption): cytotoxic effects
- concentration observed to inhibit proliferation and induce apoptotic cell death (various human cell lines; tested human cell cultures): 1000 ng/mL
- effect on cell density (SH-SY5Y cells [11]; 1 µg/mL): minimal
- effect on cell density (SH-SY5Y cells [11]; higher concentrations up to 4 µg/mL): decreased SH-SY5Y cell density
- doxycycline concentration that inhibited cell proliferation (HEK-293 cells [12]; HEK-293, TPC, 72 h): 12.5 µg/mL
- IC50 (HEK-293 cells [12]; Homo sapiens, HEK293, 72 h): 14.8 ± 1.3 µg/mL
- IC50 (SH-SY5Y cells [13]; Homo sapiens): > 200 µg/mL
- doxycycline concentration at which cell proliferation decreased (SH-SY5Y cells [13]; TPC): 50 µg/mL
- doxycycline concentration that reduced cell proliferation (HepG2 cells [14]; HepG2, TPC, 72 h): 50 µg/mL
- IC50 (HepG2 cells [14]; Homo sapiens, HepG2, 72 h): > 200 µg/mL
- proportion of apoptotic and necrotic cells (SH-SY5Y cells [15]): increased the proportion of apoptotic and necrotic cells
- proportion of apoptotic and necrotic cells (SH-SY5Y cells [15]; listed as doxycycline): marked increase in apoptotic and necrotic cell populations
- effect on cell viability (HepG2 cells [16]): reduced cell viability
